Results on 10 molecules are retold here after ChEMBL document CHEMBL1201862, “PubChem BioAssay data set” (2004).

The structures appear in SMILES notation.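 Dose response: 5 concentrations. Exposure: 48 h. Format: 96-well plates. Endpoint: linear interpolation; highest concentration if not reached. GI50: concentration for 50% inhibition of growth.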 The source made the active and inactive calls. Rule as the data show it: active = GI50 up to about 1.1 µM and inactive = higher. A value given as a limit tells only on which side of the number the result lay.

Among the test systems are IGROV-1; MDA-MB-231; SK-OV-3; RXF 393; NCI-H23; HT-29; Malme-3M; A498; DU-145; MOLT-4; M14; K562; KM12; HOP-62; NCI-H226; OVCAR-8; NCI/ADR-RES; SR; NCI-H460; HCC 2998.
Assay in all cases: DTP human tumour cell line panel, 48 h

Consider `Cc1c(O)c(OC2OC(CO)C(O)C(O)C2O)cc2c1C=C[C@@H]1[C@@]2(C)C(=O)C[C@]2(C)[C@@H]([C@@](C)(O)C(O)/C=C/C(C)(C)O)[C@H](O)C[C@@]12C` (stereo not given in full), for which the GI50 in the test with IGROV-1, with MDA-MB-231, with SK-OV-3, with RXF 393, with NCI-H23 and with HT-29 was > 100 µM (inactive) in each case. In addition, the GI50 with Malme-3M, in the test with A498, in the test on DU-145, in the test with MOLT-4, with M14 and in the test on K562 was > 100 µM (inactive) each time. Further, the GI50 in the test with KM12, with HOP-62, in the test on NCI-H226, with OVCAR-8, with NCI/ADR-RES and in the test on SR was > 100 µM (inactive) each time. Further, the GI50 in the test with NCI-H460 and in the test with HCC 2998 was > 100 µM (inactive) each time.

Consider `O=[N+]([O-])/C(Cl)=C/C(=C1/Nc2ccccc2O1)[N+](=O)[O-]`, for which the GI50 (usually the concentration at which growth is held to half of that of the control) was 33.1 µM (inactive) with IGROV-1; 30.1 µM (inactive) with MDA-MB-231; 24 µM (inactive) with SK-OV-3; 18.1 µM (inactive) with RXF 393; 17.8 µM (inactive) with NCI-H23; 32.8 µM (inactive) in the test on HT-29. In addition, the GI50 in the test on Malme-3M was 14.3 µM (inactive); with A498, 19 µM (inactive); in the test on DU-145, 19.2 µM (inactive); in the test on MOLT-4 it was 19.8 µM (inactive); in the test on M14, 19.8 µM (inactive); in the test on K562, 32.7 µM (inactive). Further, the GI50 in the test on KM12 was 19.2 µM (inactive); with HOP-62, 33.7 µM (inactive); with NCI-H226, 27.4 µM (inactive); in the test on OVCAR-8 it was 17.9 µM (inactive); in the test with NCI/ADR-RES, 24.3 µM (inactive); in the test with SR, 8.71 µM (inactive). The GI50 with NCI-H460 is 31.5 µM (inactive); with HCC 2998 it was 14.6 µM (inactive).

In the case of `O=C(CCc1ccc(O)c(O)c1)NCCc1cc(O)c(O)c(O)c1`, the GI50 is 54.1 µM (inactive) in the test on IGROV-1; 14.5 µM (inactive) in the test with MDA-MB-231; > 100 µM (inactive) in the test on SK-OV-3; 66.7 µM (inactive) with RXF 393; 15.8 µM (inactive) in the test on NCI-H23; 17.9 µM (inactive) in the test on HT-29. The GI50 in the test with Malme-3M was > 100 µM (inactive); in the test with A498, > 100 µM (inactive); in the test on DU-145 it was 64.7 µM (inactive); in the test on MOLT-4 it was 21.6 µM (inactive); in the test on M14 it was 22.4 µM (inactive); in the test on K562, 18.3 µM (inactive). The GI50 in the test with KM12 was 25.4 µM (inactive); in the test on HOP-62, 45.7 µM (inactive); in the test on NCI-H226, 34.3 µM (inactive); with OVCAR-8 it was 20.4 µM (inactive); with NCI/ADR-RES, 18.1 µM (inactive); with SR, 26.9 µM (inactive). The GI50 in the test with NCI-H460 is 20.6 µM (inactive); with HCC 2998, > 100 µM (inactive).

With `COc1cccc(-c2cc(O)c3c(C)ccnc3n2)c1`, the GI50 in the test on IGROV-1 is 0.0493 µM (active); in the test with MDA-MB-231 it was 0.279 µM (active); in the test with SK-OV-3 it was 0.0365 µM (active); in the test with RXF 393, 0.0284 µM (active); in the test on NCI-H23, 0.0625 µM (active); in the test with HT-29, 0.0233 µM (active). The GI50 in the test with Malme-3M was < 0.01 µM (active); in the test on A498 it was 0.0344 µM (active); with DU-145 it was 0.0471 µM (active); in the test on MOLT-4, 0.0407 µM (active); in the test with M14, 0.0239 µM (active); in the test on K562 it was < 0.0113 µM (active). The GI50 in the test on KM12 is 0.0257 µM (active); in the test on HOP-62 it was 0.0463 µM (active); in the test with NCI-H226 it was 0.0272 µM (active); in the test on OVCAR-8, 0.0646 µM (active); in the test on NCI/ADR-RES, 0.0224 µM (active); with SR, < 0.01 µM (active). The figures for the GI50 in the test with NCI-H460 and in the test with HCC 2998 were 0.0395 µM (active) and 0.0352 µM (active), respectively.

Take `NCCCc1c(-c2ccccc2)[nH]c(N)nc1=O`: the GI50 in the test on IGROV-1, with MDA-MB-231, in the test on SK-OV-3, in the test with RXF 393, with NCI-H23 and in the test on HT-29 was > 100 µM (inactive) throughout. The GI50 in the test on Malme-3M, in the test with A498, in the test with DU-145, in the test on MOLT-4, with M14 and with K562 was > 100 µM (inactive) in each case. Besides, the GI50 in the test with KM12, in the test with HOP-62, in the test on NCI-H226, in the test on OVCAR-8, with NCI/ADR-RES and in the test with SR was > 100 µM (inactive) each time. For the same molecule, the GI50 in the test with NCI-H460 and with HCC 2998 was > 100 µM (inactive) throughout.

As to `COC(=O)C1=C(C)NC2(O)C=CC(=O)C3C(=O)N(c4ccccc4)C(=O)C132` (stereo not given), the GI50 was > 100 µM (inactive) with IGROV-1; > 100 µM (inactive) with MDA-MB-231; > 100 µM (inactive) in the test with SK-OV-3; 83.4 µM (inactive) with RXF 393; > 100 µM (inactive) with NCI-H23; 23.3 µM (inactive) in the test on HT-29. Besides, the GI50 in the test on Malme-3M was 37.8 µM (inactive); in the test with A498, > 100 µM (inactive); in the test on DU-145, > 100 µM (inactive); with MOLT-4 it was 90.6 µM (inactive); with M14, 43.1 µM (inactive); in the test on K562 it was 48.2 µM (inactive). Further, the GI50 in the test on KM12 is > 100 µM (inactive); with HOP-62, > 100 µM (inactive); with NCI-H226 it was > 100 µM (inactive); in the test with OVCAR-8 it was > 100 µM (inactive); in the test with NCI/ADR-RES it was > 100 µM (inactive); with SR, 76.4 µM (inactive). The GI50 in the test on NCI-H460 is > 100 µM (inactive); with HCC 2998 it was 98.2 µM (inactive).

In the case of `CC(=O)c1cc2c(s1)C(=O)c1sccc1C2=O`, the GI50 was 0.168 µM (active) with IGROV-1; 0.0346 µM (active) with MDA-MB-231; 1.73 µM (inactive) in the test with SK-OV-3; 0.0254 µM (active) with RXF 393; 0.0184 µM (active) with NCI-H23; 0.202 µM (active) with HT-29. For the same molecule, the GI50 with Malme-3M was 0.0163 µM (active); in the test on A498, 1.26 µM (inactive); with DU-145 it was 0.0553 µM (active); in the test on MOLT-4, 0.0486 µM (active); with M14 it was 0.0274 µM (active); with K562 it was 0.018 µM (active). For the same molecule, the GI50 in the test on KM12 is 0.118 µM (active); with HOP-62, 0.0434 µM (active); with NCI-H226 it was 0.198 µM (active); with OVCAR-8, 0.0738 µM (active); in the test on NCI/ADR-RES, 0.056 µM (active); in the test with SR, 0.0133 µM (active). Also, the results for the GI50 with NCI-H460 and in the test with HCC 2998 were 0.0908 µM (active) and 0.218 µM (active), respectively.

For the molecule `Cc1nc2c(=O)n(C)c(=O)nc-2n(CCO)c1C`, the GI50 in the test with IGROV-1, with MDA-MB-231, with SK-OV-3, in the test with RXF 393, with NCI-H23 and in the test with HT-29 was > 100 µM (inactive) in each case. Also, the GI50 with Malme-3M, with A498, with DU-145, in the test with MOLT-4, in the test with M14 and with K562 was > 100 µM (inactive) in each case. Further, the GI50 in the test with KM12, with HOP-62, in the test with NCI-H226, with OVCAR-8, in the test with NCI/ADR-RES and in the test on SR was > 100 µM (inactive) throughout. Moreover, the GI50 with NCI-H460 and in the test on HCC 2998 was > 100 µM (inactive) in each case.

Regarding `CN(Cc1cnc2nc(N)nc(N)c2n1)c1ccc(C(=O)NCCCC(=O)O)cc1`, the GI50 is 16.1 µM (inactive) in the test with IGROV-1; > 100 µM (inactive) in the test on MDA-MB-231; 97.9 µM (inactive) with SK-OV-3; > 100 µM (inactive) in the test on RXF 393; 37.3 µM (inactive) in the test with NCI-H23; > 100 µM (inactive) with HT-29. For the same molecule, the GI50 in the test on Malme-3M was 95.9 µM (inactive); in the test on A498 it was > 100 µM (inactive); with DU-145 it was 8.49 µM (inactive); in the test on MOLT-4, 6.53 µM (inactive); in the test with M14, 7.55 µM (inactive); with K562 it was 1.2 µM (inactive). The GI50 is 8.38 µM (inactive) with KM12; 58.6 µM (inactive) in the test with HOP-62; > 37.5 µM (inactive) with NCI-H226; 7.55 µM (inactive) with OVCAR-8; > 31.4 µM (inactive) with NCI/ADR-RES; 4.99 µM (inactive) with SR. Besides, the GI50 was 7.24 µM (inactive) in the test with NCI-H460 and > 100 µM (inactive) with HCC 2998.

As for `CCCc1ccc(OCC(=O)N/N=C/c2c(-c3ccccc3)[nH]c3ccccc23)cc1`, the GI50 with IGROV-1 is 13.1 µM (inactive); in the test on MDA-MB-231 it was 7.06 µM (inactive); in the test on SK-OV-3, 27.2 µM (inactive); with RXF 393, 11.1 µM (inactive); in the test with NCI-H23 it was 13.6 µM (inactive); in the test with HT-29, 6.64 µM (inactive). Besides, the GI50 in the test with Malme-3M is 7.85 µM (inactive); in the test with A498, 14.4 µM (inactive); in the test with DU-145, 21.5 µM (inactive); with MOLT-4 it was 5.01 µM (inactive); with M14, 11.5 µM (inactive); in the test with K562, 3.99 µM (inactive). Moreover, the GI50 in the test with KM12 is 4.91 µM (inactive); in the test with HOP-62, 12.9 µM (inactive); in the test with NCI-H226 it was 17.3 µM (inactive); in the test on OVCAR-8, 9.08 µM (inactive); in the test with NCI/ADR-RES, 6.81 µM (inactive); in the test on SR, 3.85 µM (inactive). Moreover, the GI50 in the test on NCI-H460 was 4 µM (inactive); with HCC 2998, 4.04 µM (inactive).
